Values quoted from earlier work as cited in patent publication US11123318B2 (APR APPLIED PHARMA RESEARCH S.A., priority 2017, dated 2021).

What was measured:
[1] = not given; remark: listed apart in the source

Compound: O=C(O)Cc1ccccc1Nc1c(Cl)cccc1Cl [Diclofenac, 2-(2-[2,6-diclorofenilammino]phenyl) ethanoic acid]
- solubility in water: low solubility
- absorption through the gastrointestinal tract ([1]; after oral administration): completely absorbed
- time to peak plasma level ([1]; after oral administration): ≤ 1 h
- administered dose eliminated as the metabolite by the renal route ([1]; in vivo): About 60%
- administered dose excreted in the bile and in the faeces ([1]; in vivo): About 30%
- excreted as unchanged substance by the renal route ([1]; in vivo): less than 1%
